For one experiment, the target named is T1, purified γ-secretase (Homo sapiens, UniProt P49768+Q92542).
T1 construct: made in house
As to the kind of experiment: cell-free in vitro C100-Flag γ-secretase assay with purified enzyme. It counts as biochemical. The source says: The density of the AICD-Flag and Aβ total bands was quantified by Odyssey software (Supplementary data Fig. S5). […] The residue was then separated by Bicine/urea SDS-PAGE, together with an Aβ standard of synthetic human Aβ38, Aβ40 and Aβ42, followed by Western blot detection with anti-Aβ antibody (6E10, left panel), or quantification by ELISA (right panel). Black bars, Aβ [1–40]; gray bars, Aβ[1–42]. Data were presented as the means ± sd. […] The change in response units over time is shown. […]
γ-Secretase was purified from S-20 cells as described previously. The recombinant APP-based protein substrate of γ-secretase, namely human C100-Flag, was overexpressed in E. coli and purified by using an anti-Flag M2 resin[31]. Full length human NCT was purified as described previously (for details, see Supplementary information)[32].
Cell-free in vitro γ-secretase assays using the recombinant C100-Flag substrate and purified γ-secretase were performed as described in the Supplementary information.
Aβ1-x peptides secreted in the cell media were quantitatively measured by ELISA (IBL, Gunma, Japan) according to the standard protocol from the manufacturer. Aβ40 and Aβ42 generated in the C100-Flag γ-secretase assays stopped with 0.5% SDS (final concentration) were quantified with the human Beta Amyloid or [1–42] colorimetric ELISA kit, respectively. […]
γ-Secretase activity assays
γ-Secretase purified from S-20 cells was solubilized in 0.2% (w/v) CHAPSO in 50 mM HEPES buffer (pH 7.0) containing of 150 mM NaCl, 5 mM MgCl2 and 5 mM CaCl2, and incubated with 0.1% (w/v) PC and 1 μM or otherwise indicated […]
concentrations of substrate at 37 °C for 4 h, after which the enzymatic reactions were stopped by adding 0.5% SDS (final concentration). The samples were analyzed by Western Blot for AICD-Flag or Aβ. […]

A further experiment deals with T2, Nicastrin (NCT) (Homo sapiens, UniProt Q92542).
T2 construct: Full length human NCT was purified as described previously; 6×His (C); FLAG (C); made in house; host or cells: High Five insect cells (baculovirus made in Sf9)
The experiment is described as follows: surface plasmon resonance, Nicastrin immobilized. It counts as binding. The settings on record: SPR, Biacore T100, CM5 chip; read-out: equilibrium dissociation constant (Kd), Nicastrin (NCT). The procedure: A Biacore sensor Chip NTA that is designed to bind His-tagged proteins was used to immobilize γ-secretase. The SPR assay was performed in a running buffer (10 mM HEPES, 150 mM NaCl in the presence of 1% DMSO, pH 7.4). The purified His-tagged γ-secretase overexpressing human PS1, Flag-Pen-2, Aph-1a2-HA, and NCT-V5/His (see above) was diluted 6 times in DMSO-free running buffer. For each binding curve, the running buffer containing 500 μM NiCl2 was first injected to saturate the NTA chip. Then, His-tagged γ-secretase was injected and immobilized on the Ni^2+ -coated sensor chip. Compounds at the indicated concentrations were injected onto the surface of the sensor chip, and the corresponding binding spectrum was recorded. The sensor chip was regenerated with regeneration buffer (10 mM HEPES, 150 mM NaCl, 350 mM EDTA, pH 8.3). Purified human NCT (100 μg) was immobilized onto the flow cell of a CM5 sensor chip in 10 mM sodium acetate (pH 4.0) by using an amine coupling kit. The SPR assay was performed in HBS-P running buffer (10 mM HEPES, 150 mM NaCl and 0.005% surfactant P20 in the presence of 1% DMSO, pH 7.4). […] The Kd values were determined with Biacore evaluation 3.1 software. […]
Recombinant bacmids were used to transfect Sf9 cells to make the baculovirus, which was then used to infect High Five suspension insect cells (Invitrogen). […]
(In general: Surface plasmon resonance follows binding to a sensor surface in real time, without labels.)

The target of another experiment is γ-secretase (Homo sapiens, UniProt P49768+Q92542). As to the kind of experiment: surface plasmon resonance, γ-secretase immobilized. It is filed as binding. Also on record: made in house. To be noted: SPR, Biacore T100, NTA chip; read-out: equilibrium dissociation constant (Kd), γ-secretase. Here is the method:
A Biacore sensor Chip NTA that is designed to bind His-tagged proteins was used to immobilize γ-secretase. The SPR assay was performed in a running buffer (10 mM HEPES, 150 mM NaCl in the presence of 1% DMSO, pH 7.4). The purified His-tagged γ-secretase overexpressing human PS1, Flag-Pen-2, Aph-1a2-HA, and NCT-V5/His (see above) was diluted 6 times in DMSO-free running buffer. For each binding curve, the running buffer containing 500 μM NiCl2 was first injected to saturate the NTA chip. Then, His-tagged γ-secretase was injected and immobilized on the Ni^2+ -coated sensor chip. Compounds at the indicated concentrations were injected onto the surface of the sensor chip, and the corresponding binding spectrum was recorded. The sensor chip was regenerated with regeneration buffer (10 mM HEPES, 150 mM NaCl, 350 mM EDTA, pH 8.3). Purified human NCT (100 μg) was immobilized onto the flow cell of a CM5 sensor chip in 10 mM sodium acetate (pH 4.0) by using an amine coupling kit. The SPR assay was performed in HBS-P running buffer (10 mM HEPES, 150 mM NaCl and 0.005% surfactant P20 in the presence of 1% DMSO, pH 7.4). […] The Kd values were determined with Biacore evaluation 3.1 software.

Structures are written as SMILES. “And” between values parts separate entries of the source, which are not always exact repeats. Equal entries are not always repeated. Structures can show the parent of a compound that is named as a salt.

As usually defined, the IC50 is the concentration that gives 50% inhibition. High values mean weaker potency, low ones greater potency. The term Kd denotes the equilibrium constant for the complex coming apart.

T2 sequence (Q92542 34-709): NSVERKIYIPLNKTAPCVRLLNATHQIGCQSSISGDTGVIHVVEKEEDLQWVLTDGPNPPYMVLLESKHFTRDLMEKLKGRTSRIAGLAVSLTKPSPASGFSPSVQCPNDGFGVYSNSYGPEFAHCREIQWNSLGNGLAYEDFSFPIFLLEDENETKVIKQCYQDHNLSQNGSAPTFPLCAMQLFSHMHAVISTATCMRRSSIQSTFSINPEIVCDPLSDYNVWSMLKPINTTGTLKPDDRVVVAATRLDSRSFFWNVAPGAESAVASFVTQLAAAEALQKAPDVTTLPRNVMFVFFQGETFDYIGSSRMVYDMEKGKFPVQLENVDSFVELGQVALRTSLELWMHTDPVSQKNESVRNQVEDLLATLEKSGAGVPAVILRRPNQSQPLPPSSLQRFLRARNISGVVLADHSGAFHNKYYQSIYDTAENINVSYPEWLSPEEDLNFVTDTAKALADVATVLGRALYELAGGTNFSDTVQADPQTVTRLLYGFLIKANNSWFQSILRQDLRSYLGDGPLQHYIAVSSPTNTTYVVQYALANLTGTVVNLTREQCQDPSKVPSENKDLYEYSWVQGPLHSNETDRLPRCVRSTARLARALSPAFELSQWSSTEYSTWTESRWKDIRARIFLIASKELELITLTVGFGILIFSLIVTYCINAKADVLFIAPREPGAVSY

Regarding `CC(C)[C@@]1(NC(=O)[C@@H]2C[C@@H]3c4cccc5[nH]cc(c45)C[C@H]3N(C)C2)O[C@@]2(O)[C@@H]3CCCN3C(=O)[C@H](Cc3ccccc3)N2C1=O` [DHEC, Dihydroergocristine methanesulfonate salt], the “γ-secretase-dependent processing of C100-Flag into AICD-Flag or Aβ” value on purified γ-secretase (1 μM C100-Flag, 37 °C, 4 h) is reported as “inhibited”. In addition, the “inhibitory effect on γ-secretase at high substrate concentration” value against purified γ-secretase (4 μM APP-C100 compared to 1 μM) is given as “greatly reduced inhibitory effect”. For the same compound, the “The potency of compound (in vitro C100 γ-secretase assay)” value on purified γ-secretase (200 µM, compared with DHEC, estimated by densitometry) is “++”. Moreover, the IC50 against purified γ-secretase (IC50, Aβ40 and Aβ42 production (cell-free assay), 1 μM C100-Flag, 37 °C, 4 h, ELISA) is ~100 µM and 100 µM. For the same compound, the Kd on Nicastrin (NCT) was 9.85 µM and ~10 µM and 9.8 µM and 10 µM; at γ-secretase, 0.0257 µM.

The values are drawn from article PMC4644980, “The FDA-approved natural product dihydroergocristine reduces the production of the Alzheimer’s disease amyloid-β peptides” (Scientific Reports, 2015).
